Measured values published in patent US5756527A, “Imidazole derivatives useful as modulators of multi drug resistances” (Ontogen Corporation, priority 1997, dated 1998).

Legend:
CEM/VLB1000 [1] = experiment: Cytotoxicity potentiation (alamar blue) of vinblastine in multidrug-resistant cells; format: cell-based; details: midpoint of minimum and maximum cytotoxicity induced by 3-5 μg/mL vinblastine and compound, 48 h
Experimental: Multidrug-resistant cell lines are easily obtainable for in vitro determination of drug sensitization by compounds of the present invention. In vitro potentiation of antineoplastic cytotoxicity by the imidazole derivatives of the present invention was measured in both CEM/VLB1000 and SK/VLB1000 cell lines. The multidrug resistant cell lines were obtained from Dr. Victor Ling, Ontario Cancer Institute, Toronto, Canada. The CEM/VLB 1000 cell line was maintained as a suspension in minimum essential medium supplemented with 10% fetal bovine serum in a humidied atmosphere of 95% air and 5% CO2 while the SK/VLB 1000 cell line was maintained as adherent cells using the identical medium conditions as the CEM cells. The CEM/VLB 1000 cells were seeded at a density of 5×10^4 cells/well in a 96 well microtiter plate while the SK/VLB 1000 cell line was seeded at a density of 2,500 cells/well after trypsinization. Vinblastine (5 μg/mL, for the CEM cells) or Taxol (3 μg/mL, for the SK cells) and compound (0.01 to 50 μM) were added directly to the wells. After an incubation of 48 hours in presence of drug, alamar blue (B. Page et al., Int. J. Oncol. 3: 473-476, 1993) was added (10 μL to the 200 μL cell suspension) for a period of 24 hours after which the fluorescence (excitation=530 nm, emission=590 nm) was read for each well using a "CytoFluor" microtiter fluorometer plate reader. This assay measures the effective concentration of compound necessary to enhance the cytotoxicity (EC50) of vinblastine in the MDR cell line.
^1 Values presented are the midpoint (EC50) of the minimum and
maximum cytotoxicity induced by 3-5 μg/mL vinblastine and the specific
compound of the present invention.

CEM/VLB1000 [2] = experiment: [3H]-vinblastine (VLB) accumulation assay; format: cell-based; details: midpoint of minimum and maximum increase in accumulation of 3H-vinblastine (275 nM), 3 hours at 37° C.
Experimental: ^3 H-vinblastine accumulation was also measured in the CEM/VLB1000 cell line. Corning Easy-Wash 96 well plates were pretreated with PBS and 1% BSA for 60 minutes and then removed. CEM/VLB1000 cells were seeded at 2×10^5, 40 μL volume. Plates were incubated at 37° C. for 30-60 minutes prior to use. The reference reversing agent, verapamil, or the compound of the present invention was added to the well followed by addition of media containing ^3 H-vinblastine (final concentration=275nM). Plates were allowed to incubate for 3 hours at 37° C. Cells were harvested onto pretreated Wallace filtermats A (pretreated with 0.1% polyethyleneimine) using a TomTek harvester-96. After filtering, the filtermats were allowed to dry completely. Meltix B scintillant was then added to the filtermats. The filters were then placed in a 90° C. oven for approximately 3-5 minutes and then removed. Scintillant was allowed to solidify on the filtermats. Filtermats were then placed in sample bags and read on a Wallace BetaPlate scintillation counter. The effects of compounds of the present invention in the cytotoxicity potentiation assays and vinblastine (VLB) accumulation assay are given in the Table below:
^2 Values presented are the midpoint (EC50) of the minimum and
maximum increase in accumulation of ^3 Hvinblastine caused by the
specific compound of the present invention.

With `COC(=O)/C=C/c1ccc(-c2nc(-c3ccc(N(C)C)cc3)c(-c3ccc(N(C)C)cc3)[nH]2)c(F)c1` [Example 60, 2-[2-fluoro-4-(trans-methylpropenoate)phenyl]-4,5-bis(4-N,N-dimethylaminophenyl) imidazole] the EC50 (CEM/VLB1000 [1]) was 613 nM and the EC50 (CEM/VLB1000 [2]) was 3000 nM.

Compound `COC(=O)/C=C/c1ccc(-c2nc(-c3ccc(N(C)C)cc3)c(-c3ccc(N(C)C)cc3)[nH]2)s1` [Example 61] has an EC50 (CEM/VLB1000 [1]) of 217 nM and an EC50 (CEM/VLB1000 [2]) of 1800 nM.

`COC(=O)/C=C/c1csc(-c2nc(-c3ccc(N(C)C)cc3)c(-c3ccc(N(C)C)cc3)[nH]2)c1` [Example 62, 2-[3-(trans-methylpropenoate)thienyl]-4,5-bis[(4-N,N-dimethylamino)phenyl] imidazole] showed an EC50 (CEM/VLB1000 [1]) of 320 nM and an EC50 (CEM/VLB1000 [2]) of 3000 nM.

`COCCCc1ccc(-c2nc(-c3ccc(N(C)C)cc3)c(-c3ccc(N(C)C)cc3)[nH]2)cc1` [Example 63, 2-[4-(3-methoxypropyl)phenyl]-4,5-bis[(4-N,N-dimethylamino)phenyl] imidazole] showed an EC50 (CEM/VLB1000 [1]) of 205 nM and an EC50 (CEM/VLB1000 [2]) of 1100 nM.

`COc1ccc(/C=C/C(=O)OC(C)C)cc1-c1nc(-c2ccc(N(C)C)cc2)c(-c2ccc(N(C)C)cc2)[nH]1` [Example 64, 2-[2-methoxy-5-(trans-i-propylpropenoate)phenyl]-4,5-bis(4-N,N-dimethylaminophenyl) imidazole] showed an EC50 (CEM/VLB1000 [1]) of 390 nM and an EC50 (CEM/VLB1000 [2]) of 6000 nM.

Compound `CC(C)OC(=O)/C=C/c1ccc(-c2nc(-c3ccc(N(C)C)cc3)c(-c3ccc(N(C)C)cc3)[nH]2)s1` [Example 65, 2-[3-(trans-i-propylpropenoate)thienyl]-4,5-bis[(4-N,N-dimethylamino)phenyl] imidazole] has an EC50 (CEM/VLB1000 [1]) of 211 nM and an EC50 (CEM/VLB1000 [2]) of 4000 nM.

With `CN(C)c1ccc(-c2nc(-c3ccc(/C=C/C(=O)OCc4ccccc4)cc3)[nH]c2-c2ccc(N(C)C)cc2)cc1` [Example 67, 2-[4-(trans-benzylpropenoate)phenyl]-4,5-bis[(4-N,N-dimethylamino)phenyl] imidazole] the EC50 (CEM/VLB1000 [1]) was 330 nM and the EC50 (CEM/VLB1000 [2]) was 10500 nM.

With `CN(C)c1ccc(-c2nc(-c3ccc(/C=C/C(=O)OCCc4ccccc4)cc3)[nH]c2-c2ccc(N(C)C)cc2)cc1` [Example 68, 2-[4-(trans-phenethylpropenoate)phenyl]-4,5-bis[(4-N,N-dimethylamino)phenyl] imidazole] the EC50 (CEM/VLB1000 [1]) was 1200 nM and the EC50 (CEM/VLB1000 [2]) was over 30000 nM.
